Entries after “also recorded” stand apart in the source; their conditions may differ.
How the values were obtained:
[1] = tested on: IgE antibody from the patient; test: Epitope mapping (3): alanine scanning ELISA, patient serum; type: binding, human; conditions: alanine-substituted peptides; serum from patient 1; FIG. 3
Experimental: (§1) The amino acid sequence of SEQ ID NO: 22 and the amino acid sequence of SEQ ID NO: 29 identified in the above-mentioned (B) were subjected to a technique referred to as alanine scanning (Non Patent Literature 1). Specifically, a library of peptide fragments was prepared by a technique similar to that described above in (B), in which the peptide fragments were produced by substituting one amino acid at a time with alanine in each amino acid sequence of […], starting from the amino acid at an amino terminal side. Then, a technique similar to that described above in (B) was used to measure whether each peptide fragment was bound by the IgE antibody in the serum from a patient and a healthy subject, or not. When alanine substitution of an amino acid at a certain position led to loss or reduction of binding activity to the IgE antibody from the patient and development of binding activity to the IgE antibody from the healthy subject, the amino acid was determined to be an amino acid important for expression of inherent antigenicity or an amino acid affecting expression of inherent antigenicity. […] A common sequence important for expression of inherent antigenicity was discovered by this analysis.
(§2) The result of alanine scanning performed on the amino acid sequence of SEQ ID NO: 22 and the result of alanine scanning performed on the amino acid sequence of SEQ ID NO: 29 are shown in FIG. 3, respectively.

[2] = tested on: IgE antibody from the healthy subject; test: Epitope mapping (3): alanine scanning ELISA, healthy subject serum; type: binding, human; conditions: alanine-substituted peptides; sera from healthy individuals 1 and 2; FIG. 3
Experimental: as §1, §2

[3] = tested on: IgE antibody in the serum from a patient; test: Epitope mapping (2): overlapping peptide library, ELISA; type: binding, human; conditions: overlapping peptide fragments, 10 amino acids in length; 10 μg/ml biotin-bound peptide; 2% serum from patient 1; FIG. 2
Experimental: Based on the sequences (SEQ ID NOs: 6 and 13) of the peptides to which the IgE antibody in the serum bound in a manner specific to a patient in the above (A), a library of overlapping peptide fragments (10 amino acids in length) was prepared. The library was prepared using the sequences where sequences of the previous sequence and the next sequence of the aforementioned peptides in the full-length amino acid sequence of ω-5 gliadin from bread wheat (SEQ ID NO: 51) were added to the aforementioned peptides, and epitope mapping was performed.
Each synthesized peptide was shifted by one amino acid. In other words, each peptide overlaps with the previous peptide and the next peptide, each by 9 amino acids.
The target peptide was synthesized on the amino-modified resin in a 96-well plate by a method similar to that described above for (A). Biotin was bound to the amino terminus of the synthesized target peptide, with the biotin and the peptide sandwiching amino caproic acid derived from Fmoc-Acp(6)-OH as a spacer.
Said library was used to measure whether each peptide fragment is bound by the IgE antibody in the serum from a patient due to an antigen-antibody reaction, or not, and identify a sequence common to the peptides bound by the IgE antibody from the patient, thereby determining a peptide having the shortest amino acid sequence that serves as an epitope. Measurement was performed by an ELISA method in accordance with the following procedures.
(1) 10 μg/ml biotin-bound peptide of the library was prepared in PBST solution and was shaken in an avidin-coated ELISA plate for one hour at room temperature.
(2) The plate was washed with PBST solution.
(3) The plate was shaken in PBST solution with 1% skimmed milk for one hour at room temperature.
(4) The plate was shaken in PBST solution with 2% serum and 1% skimmed milk for one hour at room temperature.
(5) The plate was washed with PBST solution.
(6) Anti-human IgE antibody-HRP (1:10,000, PBST solution with 1% skimmed milk) was added and the plate was shaken for one hour at room temperature.
(7) The plate was washed with PBST solution.
(8) 20 μl of TMB ELISA (manufactured by Thermo Fisher Scientific) was added and the plate was shaken for 15 minutes at room temperature.
(9) 20 μl of 2 M sulfuric acid was added to quench an enzymatic reaction.
(10) An absorbance at 450 nm was measured.
(SEQ ID NO: 15), a subsequence of ω-5 gliadin from bread wheat, was measured by the overlapping technique in the library prepared based on SEQ ID NO: 6 and the obtained result is shown in FIG. 2. […] (SEQ ID NO: 23), a subsequence of ω-5 gliadin from bread wheat, was measured by the overlapping technique in the library prepared based on SEQ ID NO: 13 and the obtained result is shown in FIG. 2.

[4] = tested on: anti-human IgE antibody as a secondary antibody; test: Epitope mapping (3): alanine scanning ELISA, secondary antibody used alone; type: binding; conditions: alanine-substituted peptides, FIG. 3
Source text: FIG. 3 is a diagram showing the result of investigation of positions important for exerting antigenicity in SEQ ID NOs: 22 and 29 by an alanine scanning technique. The number on the horizontal axis denotes a value of coloration intensity at 450 nm measured by an absorption spectrometer (Abs.). In this figure, a double wavy line denotes that a value is not shown, P1 denotes that the serum from patient 1 was used, N1 and N2 denote that the sera from healthy individuals 1 and 2 were used, and 2nd denotes that an anti-human IgE antibody as a secondary antibody was used alone.
as §1, §2

Row | Substance | binding activity to the IgE antibody from the patient (absorbance at 450 nm) [1] | binding activity to the IgE antibody from the healthy subject (absorbance at 450 nm) [2] | binding with the IgE antibody from the patient (absorbance at 450 nm) [3] | binding activity to the anti-human IgE antibody as the secondary antibody (absorbance at 450 nm) [4]
1 | SEQ ID NO: 42: amino acid at position 1 in SEQ ID NO: 29 substituted with alanine (AQQQPPQQHQFPQQQ; Artificial Sequnece; modified epitope) | loss of binding activity |  |  | 
2 | SEQ ID NO: 33: amino acid at position 4 in SEQ ID NO: 22 substituted with alanine (QQFPQQEFAQQQQFP; modified epitope) | lost or reduced | developed binding activity |  | 
3 | SEQ ID NO: 16: overlapping 10-amino-acid peptide fragment from SEQ ID NO: 15 library (EFPQQQQFPQ; epitope candidate) |  |  | no binding | 
4 | SEQ ID NO: 30: amino acid at position 7 in SEQ ID NO: 22 substituted with alanine (QQFPQQEFPQQAQFP; modified epitope) | lost or reduced |  |  | developed binding activity
5 | SEQ ID NO: 35: amino acid at position 1 in SEQ ID NO: 22 substituted with alanine (QQFPQAEFPQQQQFP; modified epitope) | slightly reduced binding activity | developed a relatively low level of binding activity |  | developed a relatively low level of binding activity
6 | SEQ ID NO: 19: overlapping 10-amino-acid peptide fragment from SEQ ID NO: 15 library, contains SEQ ID NO: 22 (PQQEFPQQQQ; epitope candidate) |  |  | slightly weaker binding | 
7 | SEQ ID NO: 31: amino acid at position 6 in SEQ ID NO: 22 substituted with alanine (QQFPQQEFPQAQQFP; modified epitope) | slightly reduced binding activity | developed a relatively low level of binding activity |  | developed a relatively low level of binding activity
8 | SEQ ID NO: 34: amino acid at position 2 in SEQ ID NO: 22 substituted with alanine (QQFPQQAFPQQQQFP; modified epitope) | slightly increased binding activity | developed binding activity |  | 
9 | SEQ ID NO: 25: overlapping 10-amino-acid peptide fragment from SEQ ID NO: 23 library, contains SEQ ID NO: 29 (PQQQPPQQHQ; epitope candidate) |  |  | strong binding | 
10 | SEQ ID NO: 32: amino acid at position 5 in SEQ ID NO: 22 substituted with alanine (QQFPQQEFPAQQQFP; modified epitope) | reduced binding activity | did not develop binding activity |  | did not develop binding activity
11 | SEQ ID NO: 28: overlapping 10-amino-acid peptide fragment from SEQ ID NO: 23 library (QQFPQQQPPQ; epitope candidate) |  |  | no binding | 
12 | SEQ ID NO: 21: overlapping 10-amino-acid peptide fragment from SEQ ID NO: 15 library (QFPQQEFPQQ; epitope candidate) |  |  | no binding | 
13 | SEQ ID NO: 26: overlapping 10-amino-acid peptide fragment from SEQ ID NO: 23 library, contains SEQ ID NO: 29 (FPQQQPPQQH; epitope candidate) |  |  | strong binding | 
14 | SEQ ID NO: 24: overlapping 10-amino-acid peptide fragment from SEQ ID NO: 23 library (QQQPPQQHQF; epitope candidate) |  |  | no binding | 
15 | SEQ ID NO: 20: overlapping 10-amino-acid peptide fragment from SEQ ID NO: 15 library, contains SEQ ID NO: 22 (FPQQEFPQQQ; epitope candidate) |  |  | strong binding | 
16 | SEQ ID NO: 18: overlapping 10-amino-acid peptide fragment from SEQ ID NO: 15 library, contains SEQ ID NO: 22 (QQEFPQQQQF; epitope candidate) |  |  | strong binding | 
17 | SEQ ID NO: 17: overlapping 10-amino-acid peptide fragment from SEQ ID NO: 15 library, contains SEQ ID NO: 22 (QEFPQQQQFP; epitope candidate) |  |  | slightly weaker binding | 
18 | SEQ ID NO: 39: amino acid at position 4 in SEQ ID NO: 29 substituted with alanine (PQQAPPQQHQFPQQQ; modified epitope) | retained binding activity | did not develop binding activity |  | 
19 | SEQ ID NO: 40: amino acid at position 3 in SEQ ID NO: 29 substituted with alanine (PQAQPPQQHQFPQQQ; modified epitope) | loss of binding activity |  |  | developed binding activity
20 | SEQ ID NO: 14: amino acid at position 5 in SEQ ID NO: 29 substituted with alanine (PQQQAPQQHQFPQQQ; epitope) | retained binding activity; also recorded: substantially increased binding activity | did not develop binding activity |  | 
21 | SEQ ID NO: 41: amino acid at position 2 in SEQ ID NO: 29 substituted with alanine (PAQQPPQQHQFPQQQ; modified epitope) | a relatively low level of reduction of binding activity |  |  | 
22 | SEQ ID NO: 27: overlapping 10-amino-acid peptide fragment from SEQ ID NO: 23 library, contains SEQ ID NO: 29 (QFPQQQPPQQ; epitope candidate) |  |  | slightly weaker binding | 

Source: patent US11186617B2, “Epitope” (HOYU CO., LTD., priority 2017, dated 2021)
